Measured values as given in patent US10947199B2, “Spiro and cyclic bis-benzylidene proteasome inhibitor for the treatment of cancer, diabetes and neurological disorders” (UP THERAPEUTICS, INC., priority 2017, dated 2021).
Entries after “also recorded” stand apart in the source; their conditions may differ.

Legend:
[1] = tested on: proteasome function (4Ub-FL reporter) in 293TT cells; experiment: 4Ub-FL reporter assay of proteasome function in live cells; type: cell-based; details: 293TT cells expressing 4Ub-FL; for 4Ub-FL reporter stabilization / bioluminescence increase (qualitative): dose dependent
Excerpt: (§1) To measure proteasome function in live cells, we utilized an engineered ubiquitin-firefly (4Ub-FL) reporter in which four copies of mutant ubiquitin (ubiquitin G76V) gene are fused to the N-terminus of the firefly luciferase (FL) gene. The results of this experiment, shown in FIG. 1, reveal that the 4Ub-FL reporter protein is rapidly degraded by the proteasome.
as §1, with “The” for “The results of this experiment, shown in FIG. 1, reveal that the”, “proteasome (FIG. 6). […] Treatment of Up109 produced a greater increase in the 4Ub-FL bioluminescence in a dose dependent manner.” for “proteasome.”

[2] = tested on: NFκB reporter in 293 cells; experiment: NFκB reporter assay in 293 cells stimulated with TNF-a; type: cell-based; details: 293 cells carrying NFκB reporter construct
Excerpt: (§2) NFκB is constitutively activated in many cancers including high grade cervical intraepithelial neoplasia (CIN) and cervical cancer.

SKOV3-TR = experiment: MTT cell viability assay, SKOV3-TR; type: cell-based; details: for difference in activity between SKOV3 and its taxol resistant line (SKOV3-TR): SKOV3 vs SKOV3-TR; for IC50: SKOV3-TR, Ovarian Cancer (taxol resistant), MTT, 24 or 48 or 72 hours
Procedure: (§3) Briefly cancer cells incubated with Up compounds for the period of 24 or 48 or 72 hours and the cell viability was measured using MTT assay. IC50 of compounds listed in Table1.

MM.1S = experiment: MTT cell viability assay, MM.1S; type: cell-based; details: Multiple Myeloma, 24 or 48 or 72 hours
Procedure: as §3

RPMI8226 = experiment: MTT cell viability assay, RPMI8226; type: cell-based; details: RPMI8226, Multiple Myeloma, 24 or 48 or 72 hours
Procedure: as §3

RPMI8226-R = experiment: MTT cell viability assay, RPMI8226-R; type: cell-based; details: Multiple Myeloma, 24 or 48 or 72 hours
Procedure: as §3

LNCaP = experiment: MTT cell viability assay, LNCaP; type: cell-based; details: Prostate Cancer, 24 or 48 or 72 hours
Procedure: as §3

PC-3 = experiment: MTT cell viability assay, PC-3; type: cell-based; details: PC-3, Prostate Cancer, 24 or 48 or 72 hours
Procedure: as §3

DU145 = experiment: MTT cell viability assay, DU145; type: cell-based; details: DU145, Prostate Cancer, 24 or 48 or 72 hours
Procedure: as §3

ES2 = experiment: MTT cell viability assay, ES2; type: cell-based, human; details: ES2, Ovarian Cancer, 24 or 48 or 72 hours
Procedure: as §3

OVCAR3 = experiment: MTT cell viability assay, OVCAR3; type: cell-based; details: OVCAR3, Ovarian Cancer, 24 or 48 or 72 hours
Procedure: as §3

OVCAR5 = experiment: MTT cell viability assay, OVCAR5; type: cell-based; details: OVCAR5, Ovarian Cancer, 24 or 48 or 72 hours
Procedure: as §3

SKOV3 = experiment: MTT cell viability assay, SKOV3; type: cell-based; details: SKOV3, Ovarian Cancer, 24 or 48 or 72 hours
Procedure: as §3

A2780 = experiment: MTT cell viability assay, A2780; type: cell-based; details: A2780, Ovarian Cancer, 24 or 48 or 72 hours
Procedure: as §3

OV2008 = experiment: MTT cell viability assay, OV2008; type: cell-based; details: OV2008, Ovarian Cancer, 24 or 48 or 72 hours
Procedure: as §3

HS578T = experiment: MTT cell viability assay, HS578T; type: cell-based; details: Triple Negative Breast Cancer, 24 or 48 or 72 hours
Procedure: as §3

MDA-MB-231 = experiment: MTT cell viability assay, MDA-MB-231; type: cell-based; details: MDA-MB-231, Triple Negative Breast Cancer, 24 or 48 or 72 hours
Procedure: as §3

HCC1806 = experiment: MTT cell viability assay, HCC1806; type: cell-based; details: HCC1806, Triple Negative Breast Cancer, 24 or 48 or 72 hours
Procedure: as §3

HeLa = experiment: MTT cell viability assay, HeLa; type: cell-based; details: Cervical Cancer, 24 or 48 or 72 hours
Procedure: as §3

HepG2 = experiment: MTT cell viability assay, HepG2; type: cell-based; details: HepG2, Liver Cancer, 24 or 48 or 72 hours
Procedure: as §3

[3] = tested on: HFF(primary human foreskin fibroblast); experiment: MTT cell viability assay, HFF; type: cell-based; details: Normal Cell line, 24 or 48 or 72 hours
Procedure: as §3

OV2008 cancer cells = experiment: Colony formation, OV2008; type: cell-based; details: corresponding to IC50 values
A2780 cancer cells = experiment: Colony formation, A2780; type: cell-based; details: corresponding to IC50 values
[4] = tested on: K48-linked polyubiquitinated proteins in HeLa cells; experiment: anti-K48-linked ubiquitin immunoblot in HeLa cells; type: cell-based; details: 4 hr treatment
Excerpt: Accumulation of poly ubiquitinated proteins is a general phenomenon of proteasome inhibition. We examined the impact of these compounds on the levels of polyubiquitinated proteins in HeLa cells by anti-K48-linked ubiquitin immunoblot analysis.

IkB-a in HeLa cells = experiment: IkB-a stabilization in HeLa cells with TNF-a; type: cell-based; details: in the presence of TNF-a
Excerpt: as §2

RPN13 [5] = biological target: T1, RPN13 (Homo sapiens, UniProt Q16186); experiment: RA190B probe competition assay, HeLa cell lysate; type: binding; details: HeLa cell lysate pretreated with compound
T1 construct: HeLa cell lysate was pretreated with Up109 or Up117; endogenous in cells; host or cells: HeLa cell lysate
Procedure: (§4) To identify the cellular target, a competition assay was performed using RA190B probe. […] We used RA190B as a probe to determine the Up compound binding to RPN13. HeLa cell lysate was pretreated with Up109 or Up117 and then subsequently treated with RA190B. Lysate was denatured under reduced conditions and proteins were separated on a gel and probed with HRPStreptavidin.

RPN13 [6] = biological target: T1, RPN13; experiment: RA190B probe competition assay, OV2008 cell lysate; type: binding; details: compound 25 μM, RA190B 5 μM
Procedure: as §4, with “compounds” for “compound”, “OV2008” for “HeLa”, “Up compounds (25 μM)” for “Up109 or Up117”, “RA190B (5 μM).” for “RA190B.”, “HRP Streptavidin.” for “HRPStreptavidin.”

[7] = tested on: CHOP-10 mRNA in ES2 cells; experiment: CHOP-10 mRNA expression in ES2 cells; type: cell-based, human; details: 12 h
Excerpt: (§5) Accumulation of unfolded proteins upon the inhibition of proteasome function rapidly induces endoplasmic reticulum (ER) stress. ER stress triggers an evolutionarily conserved series of signal-transduction events, which constitute the unfolded protein response (UPR). The UPR attempts to restore protein homeostasis by eliminating the accumulated unfolded proteins in the ER; however, if protein homeostasis cannot be restored, apoptosis is triggered. C/EBP homologous protein (CHOP) is elevated at the onset of UPR-induced programmed cell death.

ES2 cells = experiment: Annexin-V staining by FACS of ES2 cells; type: cell-based, human; details: 12 h
Procedure: FIG. 8: (A) CHOP-10 quantification in ES2 cells treated with Up109 for 12 h; (B) Annexin-V staining by FACS analysis of ES2 cells treated with Up109 and Bortezomib for 12 h.
as §5

[8] = tested on: proteasome (4UbFL reporter) in muscle cells; experiment: 4UbFL reporter in muscle of live mice, IVIS imaging; type: in vivo; details: Balb/c mice, i.p. 40 mg/Kg; imaged 4 h, 24 h and 48 h post treatment
Procedure: To test for proteasome inhibition by Up109 in vivo, muscle cells of live Balb/c mice transduced with the 4UbFL reporter DNA construct by electroporation. After i.p. injection of luciferin, the enzymic activity of luciferase in the transfected muscle tissue was visualized as bioluminescence using an IVIS imager. At two days post electroporation of the 4UbFL DNA, mice were imaged and base line luminescence recorded. The control group (n=5) of mice was treated i.p. with vehicle alone and another group (n=5) treated i.p with Up109 (40 mg/Kg). After 4 h, 24 h and 48 h post treatment mice were again imaged and luminescence was quantified (FIG. 9).

[9] = Dose limiting toxicity studies; type: in vivo
Procedure: To identify the optimal dose that induces a clinical effect and operates with acceptable toxicity a set of experiments has been performed on female Balb/C strain mice with Up109. Individual groups of mice (n=3) were injected i.p. with increasing single doses of Up109 (3, 10, 20, 40 and 100 mg/Kg) and the endpoint evaluations included clinical observations and body weights. […] Another experiment was done with repeated i.p. doses of Up109 (40 mg/Kg, n=5) every other day for two weeks.

[10] = tested on: human ovarian cancer ES2 xenograft (ES2-Lu); experiment: ES2-Lu ovarian cancer xenograft, intraperitoneal; type: in vivo; details: nude female mice, 10 mg/Kg on alternate days for two weeks
Procedure: To test the efficacy of Up109 to treat the human ovarian cancer ES2 xenograft model, the luciferase-expressing ES2 cells (ES2-Lu) were inoculated into peritoneal cavity of nude female mice (i.e. orthotopically). Two days after inoculation the mice were imaged for their basal luminescence activity and then randomized into two groups (n=10). First group was treated with the vehicle and the second group was treated with Up109 (10 mg/Kg) on alternate days for two weeks. Mice were imaged after the first and second week of treatment for their luciferase activity. […] Tumor burden in the vehicle group mice was excessive and sacrificed at the end of the treatment (FIG. 10).

T1 sequence (Q16186 whole entry): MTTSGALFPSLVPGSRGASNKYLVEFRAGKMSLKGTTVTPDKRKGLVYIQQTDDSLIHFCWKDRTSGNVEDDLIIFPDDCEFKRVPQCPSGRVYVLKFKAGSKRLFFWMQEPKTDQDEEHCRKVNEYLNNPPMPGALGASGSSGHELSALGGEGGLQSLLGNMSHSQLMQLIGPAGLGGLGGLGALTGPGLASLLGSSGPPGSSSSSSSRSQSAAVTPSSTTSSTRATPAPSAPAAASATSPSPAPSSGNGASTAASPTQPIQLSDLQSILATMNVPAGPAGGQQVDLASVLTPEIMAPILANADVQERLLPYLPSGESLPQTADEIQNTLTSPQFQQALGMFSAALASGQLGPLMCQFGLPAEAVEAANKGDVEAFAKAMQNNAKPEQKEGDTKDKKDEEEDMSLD

Structure (SMILES)	increase in 4Ub-FL bioluminescence compared to before treatment [1]	NFκB reporter activity after stimulation with TNF-a [2]	difference in activity between SKOV3 and its taxol resistant line (SKOV3-TR) (SKOV3-TR)	IC50 (MM.1S) [nM]	IC50 (RPMI8226) [nM]	IC50 (RPMI8226-R) [nM]	IC50 (LNCaP) [nM]	IC50 (PC-3) [nM]	IC50 (DU145) [nM]	IC50 (ES2) [nM]	IC50 (OVCAR5) [nM]	IC50 (SKOV3) [nM]	IC50 (SKOV3-TR) [nM]	IC50 (A2780) [nM]	IC50 (OV2008) [nM]	IC50 (HS578T) [nM]	IC50 (MDA-MB-231) [nM]	IC50 (HCC1806) [nM]	IC50 (HeLa) [nM]	IC50 (HepG2) [nM]	other results
Cl.N[C@@H](Cc1ccccc1)C(=O)N1C/C(=C/c2ccc(Cl)c(Cl)c2)C(=O)/C(=C\c2ccc(Cl)c(Cl)c2)C1 [RA190, reference compound]	fivefold increase	significant dose-dependent decrease																			
CC(=O)O[C@H]1C(=O)[C@@]2(C)[C@H]([C@H](OC(=O)c3ccccc3)[C@]3(O)C[C@H](OC(=O)[C@H](O)[C@@H](NC(=O)c4ccccc4)c4ccccc4)C(C)=C1C3(C)C)[C@]1(OC(C)=O)CO[C@@H]1C[C@@H]2O [Taxol, reference compound]			7 fold																		
C=CC(=O)N1CCC2(CC1)C(=Cc1ccc([N+](=O)[O-])cc1)C(=O)C2=Cc1ccc([N+](=O)[O-])cc1 [Up109]	thirteen-fold increase	significant dose-dependent decrease	similarly active	35	123	61	65	57	77	22	19	45	58	13	34	17	38	42	75	118	IC50 (OVCAR3): 21 nM; IC50 [3]: > 1250 nM; colony formation (OV2008 cancer cells): significantly blocked colony formation; colony formation (A2780 cancer cells): significantly blocked colony formation; 4Ub-FL reporter stabilization / bioluminescence increase (qualitative) [1]: greater increase in the 4Ub-FL bioluminescence than RA190; also recorded: stabilization and an increase in luciferase activity; levels of K48-linked polyubiquitinated proteins [4]: dramatically increased; stabilization of IkB-a (IkB-a in HeLa cells): Stabilization of IkB-a was observed; competition with RA190B for binding to RPN13 (RPN13 [5]): disappearance of RA190B labeling; competition with RA190B for binding to RPN13 (RPN13 [6]): Disappearance of RA190B labeling; CHOP-10 mRNA expression [7]: rapidly up-regulated; Annexin-V positive cells (apoptosis) (ES2 cells): elevation of apoptosis; 4UbFL reporter stabilization in vivo (bioluminescence) [8]: Stabilized; toxicities/weight loss, repeated dose ([9]; Balb/C mice, i.p. 40 mg/Kg every other day for two weeks): No observable toxicities/weight loss; clinical observations and body weights, single dose ([9]; female Balb/C mice, single i.p. doses 3, 10, 20, 40 and 100 mg/Kg): No clinically apparent sign of adverse effect; weight loss and observable side effects [10]: no weight loss and any observable side effects; tumor burden compared to the vehicle ([10]; ES2-Lu i.p.): significantly reduced the tumor burden
O=C(CCl)NC(Cc1ccccc1)C(=O)N1CCC2(CC1)C(=Cc1ccc([N+](=O)[O-])cc1)C(=O)C2=Cc1ccc([N+](=O)[O-])cc1 (stereo not drawn) [Up117]		significant dose-dependent decrease	similarly active	42	140	78	87	74	130	41	37	157	202	22	47	32	56	71	89	447	IC50 [3]: > 1250 nM; colony formation (OV2008 cancer cells): significantly blocked colony formation; colony formation (A2780 cancer cells): significantly blocked colony formation; 4Ub-FL reporter stabilization / bioluminescence increase (qualitative) [1]: greater increase in the 4Ub-FL bioluminescence than RA190; levels of K48-linked polyubiquitinated proteins [4]: dramatically increased; stabilization of IkB-a (IkB-a in HeLa cells): Stabilization of IkB-a was observed; competition with RA190B for binding to RPN13 (RPN13 [5]): disappearance of RA190B labeling; competition with RA190B for binding to RPN13 (RPN13 [6]): Disappearance of RA190B labeling
